In US12673954B2 (BRISTOL-MYERS SQUIBB COMPANY, priority 2021, dated 2026):

Assays:
[1] = system: IRF pathway, THP1-Dual™ cells; experiment: STING reporter assay in THP1-Dual cells, IRF pathway (Lucia luciferase, QUANTI-Luc); format: cell-based, human; conditions: Homo sapiens, THP1-Dual, 20 h, THP1-Dual cells, 10% human plasma, 20 hours; Lucia luciferase; 100% activation = 100 μM cGAMP; read-out: IRF (EC50 μM)
Method in brief: (§1)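 Activation normalised between DMSO-only baseline and 100 μM cGAMP maximum, after 20 h compound exposure (starting at 100 μM final) at 37° C, 5% CO2. Supernatant SEAP (QUANTI-Blue, OD620) reports NF-κB; secreted luciferase (QUANTI-Luc, RLU at 5 min) reports IRF.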

[2] = system: NF-κB pathway, THP1-Dual™ cells; experiment: STING reporter assay in THP1-Dual cells, NF-κB pathway (SEAP, QUANTI-Blue); format: cell-based, human; conditions: Homo sapiens, THP1-Dual, 20 h, THP1-Dual cells, 10% human plasma, 20 hours; SEAP; 100% activation = 100 μM cGAMP; read-out: NFkB (EC50 μM)
Method in brief: as §1

COC(OC(=O)c1cc(Cl)cc2cc(CNC(=O)c3cnn4cccnc34)oc12)C(F)(F)F (single isomer, unassigned) [EXAMPLE 331, 2,2,2-Trifluoro-1-methoxyethyl 5-chloro-2-((pyrazolo[1,5-a]pyrimidine-3-carboxamido)methyl)benzofuran-7-carboxylate]
EC50 [1]: 1.7 µM
EC50 [2]: 1.8 µM
